In patent publication US12077503B2, “Substituted cyclic amides and their use as herbicides” (FMC CORPORATION, priority 2015, dated 2024):

Experiments:
Format in all cases: in vivo
[1] = test system: ivy-leaved morning glory (Ipomoea hederacea); assay: Test G Pre-Emergence Protocol; details: Ipomoea, pre-emergence, 312 h, evaluated after 13 days; for pest or weed control at 15.625 g/ha: 15.625 g ai/ha, read-out: Morning-glory, Ivy-leaved damage rating (100=total damage to plant; 0=no damage to plant); for pest or weed control at 62.5 g/ha: 62.5 g ai/ha, 100=total damage to plant, 0=no damage to plant, read-out: plant damage rating, Morningglory, Ivy-leaved; for pest or weed control at 250 g/ha: 250 g ai/ha, read-out: Morningglory, Ivy-leaved damage rating (100=total damage to plant; 0=no damage to plant)
Procedure, shortened: (§1)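 Spraying took place one day after sowing, at 15.625, 62.5 or 250 g/ha, using an acetone/water (50:50) spray solution containing 0.5% Tween 20. Plants were kept under glasshouse conditions (24/16 °C, 14 h light, 65% humidity, watered twice daily), and injury was rated 0–100 at day 13.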

[2] = test system: velvetleaf (Abutilon theophrasti); assay: Test G Pre-Emergence Protocol; details: Abutilon theophrasti, pre-emergence, 312 h, evaluated after 13 days; for pest or weed control at 15.625 g/ha: 15.625 g ai/ha; for pest or weed control at 15.625 g/ha / pest or weed control at 250 g/ha: read-out: Velvetleaf damage rating (100=total damage to plant; 0=no damage to plant); for pest or weed control at 62.5 g/ha: 62.5 g ai/ha, 100=total damage to plant, 0=no damage to plant, read-out: plant damage rating, Velvetleaf; for pest or weed control at 250 g/ha: 250 g ai/ha
Procedure, shortened: as §1

[3] = test system: giant foxtail (Setaria faberi); assay: Test G Pre-Emergence Protocol; details: Setaria faberi, pre-emergence, 312 h, evaluated after 13 days; for pest or weed control at 15.625 g/ha: 15.625 g ai/ha; for pest or weed control at 15.625 g/ha / pest or weed control at 250 g/ha: read-out: Foxtail, Giant damage rating (100=total damage to plant; 0=no damage to plant); for pest or weed control at 62.5 g/ha: 62.5 g ai/ha, 100=total damage to plant, 0=no damage to plant, read-out: plant damage rating, Foxtail, Giant; for pest or weed control at 250 g/ha: 250 g ai/ha
Procedure, shortened: as §1

corn (Zea mays) [4] = assay: Test G Pre-Emergence Protocol; details: Zea mays, pre-emergence, 312 h, evaluated after 13 days; for plant injury at 15.625 g/ha: 15.625 g ai/ha; for plant injury at 15.625 g/ha / plant injury at 250 g/ha: read-out: Corn damage rating (100=total damage to plant; 0=no damage to plant); for plant injury at 62.5 g/ha: 62.5 g ai/ha, 100=total damage to plant, 0=no damage to plant, read-out: plant damage rating, Corn; for plant injury at 250 g/ha: 250 g ai/ha
Procedure, shortened: as §1

[5] = test system: barnyardgrass (Echinochloa crus-galli); assay: Test G Pre-Emergence Protocol; details: Echinochloa crus-galli, pre-emergence, 312 h, evaluated after 13 days; for pest or weed control at 15.625 g/ha: 15.625 g ai/ha, read-out: Barnyard grass damage rating (100=total damage to plant; 0=no damage to plant); for pest or weed control at 62.5 g/ha: 62.5 g ai/ha, 100=total damage to plant, 0=no damage to plant, read-out: plant damage rating, Barnyardgrass; for pest or weed control at 250 g/ha: 250 g ai/ha, read-out: Barnyardgrass damage rating (100=total damage to plant; 0=no damage to plant)
Procedure, shortened: as §1

[6] = test system: redroot pigweed (Amaranthus retroflexus); assay: Test G Pre-Emergence Protocol; details: Amaranthus retroflexus, pre-emergence, 312 h, evaluated after 13 days; for pest or weed control at 15.625 g/ha: 15.625 g ai/ha; for pest or weed control at 15.625 g/ha / pest or weed control at 250 g/ha: read-out: Pigweed, Redroot damage rating (100=total damage to plant; 0=no damage to plant); for pest or weed control at 62.5 g/ha: 62.5 g ai/ha, 100=total damage to plant, 0=no damage to plant, read-out: plant damage rating, Pigweed, Redroot; for pest or weed control at 250 g/ha: 250 g ai/ha
Procedure, shortened: as §1

[7] = test system: ivy-leaved morning glory (Ipomoea hederacea); assay: Test G Post-Emergence Protocol; details: Ipomoea, post-emergence, 312 h; for pest or weed control at 15.625 g/ha: 15.625 g ai/ha, evaluated after 13 days (100=total damage to plant; 0=no damage to plant), read-out: Morningglory, Ivy-leaved damage rating; for pest or weed control at 62.5 g/ha: 62.5 g ai/ha, read-out: Morningglory, Ivy-leaved damage rating (100=total damage to plant; 0=no damage to plant); for pest or weed control at 62.5 g/ha / pest or weed control at 250 g/ha: evaluated after 13 days; for pest or weed control at 250 g/ha: 250 g ai/ha, read-out: damage to plant, Morningglory, Ivy-leaved (100=total damage to plant; 0=no damage to plant)
Procedure, shortened: (§2)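 Damage was rated 13 days after treatment from 0 (none) to 100 (plant killed). Compound was applied as a spray at 15.625, 62.5 or 250 g/ha in 50:50 acetone/water containing 0.5% Tween 20, onto 8-day-old potted plants kept in a glasshouse (24/16 °C, 14 h light, 65% humidity).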

[8] = test system: velvetleaf (Abutilon theophrasti); assay: Test G Post-Emergence Protocol; details: Abutilon theophrasti, post-emergence, 312 h; for pest or weed control at 15.625 g/ha: 15.625 g ai/ha, evaluated after 13 days (100=total damage to plant; 0=no damage to plant), read-out: Velvetleaf damage rating; for pest or weed control at 62.5 g/ha: 62.5 g ai/ha, read-out: Velvetleaf damage rating (100=total damage to plant; 0=no damage to plant); for pest or weed control at 62.5 g/ha / pest or weed control at 250 g/ha: evaluated after 13 days; for pest or weed control at 250 g/ha: 250 g ai/ha, read-out: damage to plant, Velvetleaf (100=total damage to plant; 0=no damage to plant)
Procedure, shortened: as §2

[9] = test system: giant foxtail (Setaria faberi); assay: Test G Post-Emergence Protocol; details: Setaria faberi, post-emergence, 312 h; for pest or weed control at 15.625 g/ha: 15.625 g ai/ha, evaluated after 13 days (100=total damage to plant; 0=no damage to plant), read-out: Foxtail, Giant damage rating; for pest or weed control at 62.5 g/ha: 62.5 g ai/ha, read-out: Foxtail, Giant damage rating (100=total damage to plant; 0=no damage to plant); for pest or weed control at 62.5 g/ha / pest or weed control at 250 g/ha: evaluated after 13 days; for pest or weed control at 250 g/ha: 250 g ai/ha, read-out: damage to plant, Foxtail, Giant (100=total damage to plant; 0=no damage to plant)
Procedure, shortened: as §2

corn (Zea mays) [10] = assay: Test G Post-Emergence Protocol; details: Zea mays, post-emergence, 312 h; for plant injury at 15.625 g/ha: 15.625 g ai/ha, evaluated after 13 days (100=total damage to plant; 0=no damage to plant), read-out: Corn damage rating; for plant injury at 62.5 g/ha: 62.5 g ai/ha, read-out: Corn damage rating (100=total damage to plant; 0=no damage to plant); for plant injury at 62.5 g/ha / plant injury at 250 g/ha: evaluated after 13 days; for plant injury at 250 g/ha: 250 g ai/ha, read-out: damage to plant, Corn (100=total damage to plant; 0=no damage to plant)
Procedure, shortened: as §2

[11] = test system: barnyardgrass (Echinochloa crus-galli); assay: Test G Post-Emergence Protocol; details: Echinochloa crus-galli, post-emergence, 312 h; for pest or weed control at 15.625 g/ha: 15.625 g ai/ha, evaluated after 13 days (100=total damage to plant; 0=no damage to plant), read-out: Barnyardgrass damage rating; for pest or weed control at 62.5 g/ha: 62.5 g ai/ha, read-out: Barnyardgrass damage rating (100=total damage to plant; 0=no damage to plant); for pest or weed control at 62.5 g/ha / pest or weed control at 250 g/ha: evaluated after 13 days; for pest or weed control at 250 g/ha: 250 g ai/ha, read-out: damage to plant, Barnyardgrass (100=total damage to plant; 0=no damage to plant)
Procedure, shortened: as §2

[12] = test system: redroot pigweed (Amaranthus retroflexus); assay: Test G Post-Emergence Protocol; details: Amaranthus retroflexus, post-emergence, 312 h; for pest or weed control at 15.625 g/ha: 15.625 g ai/ha, evaluated after 13 days (100=total damage to plant; 0=no damage to plant), read-out: Pigweed, Redroot damage rating; for pest or weed control at 62.5 g/ha: 62.5 g ai/ha, read-out: Pigweed, Redroot damage rating (100=total damage to plant; 0=no damage to plant); for pest or weed control at 62.5 g/ha / pest or weed control at 250 g/ha: evaluated after 13 days; for pest or weed control at 250 g/ha: 250 g ai/ha, read-out: damage to plant, Pigweed, Redroot (100=total damage to plant; 0=no damage to plant)
Procedure, shortened: as §2

SMILES	pest or weed control at 15.625 g/ha [1] [%]	pest or weed control at 62.5 g/ha [1] [%]	pest or weed control at 250 g/ha [1] [%]	pest or weed control at 15.625 g/ha [2] [%]	pest or weed control at 62.5 g/ha [2] [%]	pest or weed control at 250 g/ha [2] [%]	pest or weed control at 15.625 g/ha [3] [%]	pest or weed control at 62.5 g/ha [3] [%]	pest or weed control at 250 g/ha [3] [%]	plant injury at 15.625 g/ha (corn (Zea mays) [4]) [%]	plant injury at 62.5 g/ha (corn (Zea mays) [4]) [%]	plant injury at 250 g/ha (corn (Zea mays) [4]) [%]	pest or weed control at 15.625 g/ha [5] [%]	pest or weed control at 62.5 g/ha [5] [%]	pest or weed control at 250 g/ha [5] [%]	pest or weed control at 15.625 g/ha [6] [%]	pest or weed control at 62.5 g/ha [6] [%]	pest or weed control at 250 g/ha [6] [%]	pest or weed control at 15.625 g/ha [7] [%]	pest or weed control at 62.5 g/ha [7] [%]	also measured
CN1C[C@@H](c2ccc(C(F)(F)F)cc2)[C@H](C(=O)Nc2nccc(=O)[nH]2)C1=O (racemic) [Compound 1622]	0	0	0	0	0	0	0	0	0	0	0	0	0	0	0	0	0	0	0	0	pest or weed control at 250 g/ha [7]: 0%; pest or weed control at 15.625 g/ha [8]: 0%; pest or weed control at 62.5 g/ha [8]: 0%; pest or weed control at 250 g/ha [8]: 0%; pest or weed control at 15.625 g/ha [9]: 0%; pest or weed control at 62.5 g/ha [9]: 0%; pest or weed control at 250 g/ha [9]: 0%; plant injury at 15.625 g/ha (corn (Zea mays) [10]): 0%; plant injury at 62.5 g/ha (corn (Zea mays) [10]): 0%; plant injury at 250 g/ha (corn (Zea mays) [10]): 0%; pest or weed control at 15.625 g/ha [11]: 0%; pest or weed control at 62.5 g/ha [11]: 0%; pest or weed control at 250 g/ha [11]: 0%; pest or weed control at 15.625 g/ha [12]: 0%; pest or weed control at 62.5 g/ha [12]: 0%; pest or weed control at 250 g/ha [12]: 0%
CN1C[C@@H](c2ccc(C(F)(F)F)cc2)[C@H](C(=O)Nc2cccc(F)c2)C1=O (racemic) [Compound 1623]	10	10	10	10	0	50	20	60	80	10	0	10	10	30	60	10	10	50	30	30	pest or weed control at 250 g/ha [7]: 60%; pest or weed control at 15.625 g/ha [8]: 0%; pest or weed control at 62.5 g/ha [8]: 0%; pest or weed control at 250 g/ha [8]: 20%; pest or weed control at 15.625 g/ha [9]: 30%; pest or weed control at 62.5 g/ha [9]: 70%; pest or weed control at 250 g/ha [9]: 80%; plant injury at 15.625 g/ha (corn (Zea mays) [10]): 0%; plant injury at 62.5 g/ha (corn (Zea mays) [10]): 0%; plant injury at 250 g/ha (corn (Zea mays) [10]): 30%; pest or weed control at 15.625 g/ha [11]: 10%; pest or weed control at 62.5 g/ha [11]: 70%; pest or weed control at 250 g/ha [11]: 80%; pest or weed control at 15.625 g/ha [12]: 10%; pest or weed control at 62.5 g/ha [12]: 20%; pest or weed control at 250 g/ha [12]: 60%
